Where two headings read alike, the source gives them in different places.
How the values were obtained:
HDAC7 = molecular target: T1, HDAC7 (Homo sapiens, UniProt Q8WUI4); test: HDAC7 level in Jurkat cells, Western blot; format: cell-based; details: 6 h
T1 construct: endogenous in cells; host or cells: Jurkat
T1 sequence (Q8WUI4 1-952): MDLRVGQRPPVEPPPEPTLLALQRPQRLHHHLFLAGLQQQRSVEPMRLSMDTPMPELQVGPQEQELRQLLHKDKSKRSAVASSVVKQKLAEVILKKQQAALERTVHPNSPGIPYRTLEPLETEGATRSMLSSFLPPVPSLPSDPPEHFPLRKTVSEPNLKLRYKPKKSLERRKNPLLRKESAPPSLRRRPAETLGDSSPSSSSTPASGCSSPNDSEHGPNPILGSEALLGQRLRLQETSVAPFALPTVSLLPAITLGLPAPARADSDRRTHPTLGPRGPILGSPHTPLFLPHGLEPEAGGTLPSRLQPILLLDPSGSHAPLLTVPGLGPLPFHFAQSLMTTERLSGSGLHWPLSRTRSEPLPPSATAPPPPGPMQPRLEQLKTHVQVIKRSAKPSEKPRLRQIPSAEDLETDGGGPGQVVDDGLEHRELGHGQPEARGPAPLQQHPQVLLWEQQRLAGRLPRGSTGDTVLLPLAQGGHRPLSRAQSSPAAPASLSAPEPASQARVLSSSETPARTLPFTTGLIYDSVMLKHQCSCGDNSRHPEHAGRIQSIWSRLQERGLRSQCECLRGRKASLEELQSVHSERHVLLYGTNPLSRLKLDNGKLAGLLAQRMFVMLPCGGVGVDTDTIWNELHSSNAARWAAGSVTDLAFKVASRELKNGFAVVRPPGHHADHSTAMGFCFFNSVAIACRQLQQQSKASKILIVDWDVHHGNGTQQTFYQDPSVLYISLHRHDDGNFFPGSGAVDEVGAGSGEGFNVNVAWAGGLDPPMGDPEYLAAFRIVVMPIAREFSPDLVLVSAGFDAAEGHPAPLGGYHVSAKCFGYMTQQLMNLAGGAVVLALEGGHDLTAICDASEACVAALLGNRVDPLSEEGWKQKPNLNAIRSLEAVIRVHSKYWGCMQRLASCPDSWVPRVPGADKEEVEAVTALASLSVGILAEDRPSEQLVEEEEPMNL

HDAC6 = molecular target: T2, HDAC6 (Homo sapiens, UniProt Q9UBN7); test: HDAC6 level in HCT116 cells, Western blot; format: cell-based; design: endogenous in cells; host or cells: HCT116; details: 6 h
T2 sequence (Q9UBN7 1-1215): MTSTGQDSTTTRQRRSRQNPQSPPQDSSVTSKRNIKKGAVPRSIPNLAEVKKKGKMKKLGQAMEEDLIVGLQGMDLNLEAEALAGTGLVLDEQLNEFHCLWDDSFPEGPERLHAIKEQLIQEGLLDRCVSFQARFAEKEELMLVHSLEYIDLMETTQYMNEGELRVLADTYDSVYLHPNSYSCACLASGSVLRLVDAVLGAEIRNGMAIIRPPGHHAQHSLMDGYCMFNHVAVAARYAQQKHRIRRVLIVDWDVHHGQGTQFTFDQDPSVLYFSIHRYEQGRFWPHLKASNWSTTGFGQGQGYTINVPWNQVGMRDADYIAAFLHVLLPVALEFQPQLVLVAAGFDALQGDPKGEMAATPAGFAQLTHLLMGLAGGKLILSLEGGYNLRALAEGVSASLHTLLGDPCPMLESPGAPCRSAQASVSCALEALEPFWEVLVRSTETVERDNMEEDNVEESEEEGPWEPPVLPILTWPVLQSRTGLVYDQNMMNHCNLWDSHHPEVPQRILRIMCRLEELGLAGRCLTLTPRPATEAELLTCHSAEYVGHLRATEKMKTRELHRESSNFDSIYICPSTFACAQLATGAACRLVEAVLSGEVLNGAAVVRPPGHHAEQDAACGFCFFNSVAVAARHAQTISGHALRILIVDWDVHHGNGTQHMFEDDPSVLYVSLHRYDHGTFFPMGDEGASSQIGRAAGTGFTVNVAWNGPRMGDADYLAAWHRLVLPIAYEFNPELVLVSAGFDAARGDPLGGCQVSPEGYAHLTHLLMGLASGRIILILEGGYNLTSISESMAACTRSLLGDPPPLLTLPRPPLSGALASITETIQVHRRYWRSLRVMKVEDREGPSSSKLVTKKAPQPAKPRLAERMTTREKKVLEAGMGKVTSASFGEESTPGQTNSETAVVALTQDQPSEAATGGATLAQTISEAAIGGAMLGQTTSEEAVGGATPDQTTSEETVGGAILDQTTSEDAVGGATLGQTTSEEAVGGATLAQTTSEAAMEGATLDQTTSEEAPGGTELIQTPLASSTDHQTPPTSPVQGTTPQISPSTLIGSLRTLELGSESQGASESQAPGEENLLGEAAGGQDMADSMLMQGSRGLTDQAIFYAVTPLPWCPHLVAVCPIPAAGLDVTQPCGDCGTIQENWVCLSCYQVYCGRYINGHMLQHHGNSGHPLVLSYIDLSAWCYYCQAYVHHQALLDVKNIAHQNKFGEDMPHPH

IKZF3 = molecular target: T3, IKZF3 (Homo sapiens, UniProt Q9UKT9); test: IKZF3 level in Jurkat cells, Western blot; format: cell-based; details: 6 h
T3 construct: endogenous in cells; host or cells: Jurkat
T3 sequence (Q9UKT9 whole entry): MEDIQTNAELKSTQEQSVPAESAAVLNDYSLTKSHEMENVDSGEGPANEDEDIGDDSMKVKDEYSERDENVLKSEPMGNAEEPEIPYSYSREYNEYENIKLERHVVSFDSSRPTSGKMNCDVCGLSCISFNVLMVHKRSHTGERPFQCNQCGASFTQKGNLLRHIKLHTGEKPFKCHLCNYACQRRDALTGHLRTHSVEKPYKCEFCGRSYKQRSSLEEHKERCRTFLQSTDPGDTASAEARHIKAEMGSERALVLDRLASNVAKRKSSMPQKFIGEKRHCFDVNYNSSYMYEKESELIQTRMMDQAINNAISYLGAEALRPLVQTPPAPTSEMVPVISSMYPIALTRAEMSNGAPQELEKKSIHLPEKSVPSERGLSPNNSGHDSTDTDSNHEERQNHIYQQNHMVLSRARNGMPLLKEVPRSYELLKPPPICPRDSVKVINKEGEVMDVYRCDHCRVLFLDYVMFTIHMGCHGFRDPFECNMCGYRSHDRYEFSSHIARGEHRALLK

STAT3 = details: 24 h
Source text: We also explored a potential by-stander effect of HDAC8 degradation. It has been reported that HDAC8 can form a corepressor complex with STAT3 and release of the HDAC8 corepressor complex can recruit p300, Sp3, and other factors that activate gene transcription in colon cancer HCT116 cells.[20]

IKZF1 = molecular target: T4, IKZF1 (Homo sapiens, UniProt Q13422); test: IKZF1 level in Jurkat cells, Western blot; format: cell-based; details: 6 h
T4 construct: endogenous in cells; host or cells: Jurkat
T4 sequence (Q13422 whole entry): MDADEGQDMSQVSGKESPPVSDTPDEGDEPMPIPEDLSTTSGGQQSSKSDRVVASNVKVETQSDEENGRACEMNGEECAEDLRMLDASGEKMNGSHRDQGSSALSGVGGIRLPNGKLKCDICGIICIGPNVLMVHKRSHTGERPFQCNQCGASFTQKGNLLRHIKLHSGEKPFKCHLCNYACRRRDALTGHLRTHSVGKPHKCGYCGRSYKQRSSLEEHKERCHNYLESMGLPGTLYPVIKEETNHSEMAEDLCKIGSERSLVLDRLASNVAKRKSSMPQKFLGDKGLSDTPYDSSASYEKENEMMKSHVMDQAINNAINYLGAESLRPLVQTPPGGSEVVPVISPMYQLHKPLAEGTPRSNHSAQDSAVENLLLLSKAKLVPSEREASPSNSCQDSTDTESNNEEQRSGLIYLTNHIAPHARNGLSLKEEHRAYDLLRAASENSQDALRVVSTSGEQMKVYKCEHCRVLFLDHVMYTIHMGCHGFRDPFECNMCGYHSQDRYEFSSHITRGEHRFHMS

[1] = tested on: acetyl-histone H3 (Ac-HH3); test: Ac-HH3 level in HCT116 cells, Western blot; format: cell-based; details: 6 h
acetyl-SMC3 (Ac-SMC3) = test: Ac-SMC3 level in Jurkat cells, Western blot; format: cell-based; details: 6 h

Structure (SMILES): CCCCCCNNC(=O)c1ccc(CNC(=O)CN2CCC(c3ccc(NC4CCC(=O)NC4=O)cc3)CC2)cc1 (stereo not drawn) [Z16, 2-(4-(4-((2,6-Dioxopiperidin-3-yl)amino)phenyl)piperidin-1-yl)-N-(4-(2-hexylhydrazine-1-carbonyl)benzyl)acetamide]
- HDAC7 degradation (in words) (HDAC7): no obvious
- impact on HDAC6 (in words) (HDAC6): without significant impact
- intracellular level of IKZF3 (in words) (IKZF3): did not significantly affect
- STAT3 degradation (in words) (STAT3; HCT116 cells): did not induce STAT3 degradation
- STAT3 degradation (in words) (STAT3; Jurkat cells): did not induce STAT3 degradation
- intracellular level of IKZF1 (in words) (IKZF1): did not significantly affect
- concentration at which increased acetylation of histone H3 started [1]: 40 nM
- concentration at which increased acetylation of SMC3 started (acetyl-SMC3 (Ac-SMC3)): around 10 nM
- concentration leading to obvious increased Ac-SMC3 (acetyl-SMC3 (Ac-SMC3)): 0.01 µM
